Values joined by “and” are separate entries in the source; they are usually repeats but may differ in a detail not shown here. Equal entries are not always repeated. Active and inactive are the calls of the source. How the calls were made is not given here.
test system: HEK-293T NF-kB luciferase reporter, luminescence counterscreen; experiment: NF-kB reporter suppression in HEK-293T cells – luminescence, B-cell screen hits, counter-screen for BCR NF-kB inhibitor project, dose response (AID 489022)

| SMILES | IC50 |
| --- | --- |
| Cc1nc(Nc2c(Cl)cccc2Cl)sc1C(=O)Nc1ccccc1 | 33 µM (inactive) |
| CCN(CC)S(=O)(=O)c1ccc(N2CCOCC2)c(NC(=O)c2[nH]c(C)c(C(C)=O)c2C)c1 | 5.92 µM |
| Cc1cccn2c(=O)c3cc(C(=O)NC4CCCCC4)c(=N)n(CCN4CCOCC4)c3nc12 | > 80 µM (inactive) |
| CCc1ccc(-c2nnn(CCC(=O)OC)n2)cc1 | 0.6 µM |
| CC(=O)Nc1ccc(Nc2nc(-c3sc(NC(C)=O)nc3C)cs2)cc1 | 47.1 µM (inactive) |
| Cc1cc(OCC(=O)Nc2ccc(CCO)cc2)c2c(C)c(C)c(=O)oc2c1 | > 80 µM (inactive) |
| CC(C)(C)c1ccc(-c2cc(N)n[nH]2)cc1 | > 80 µM (inactive) |
| CC(C)OCCCNC(=O)c1c(N)n(/N=C/c2ccccn2)c2nc3ccccc3nc12 | > 80 µM (inactive) |
| Cc1c(CC(=O)NCCCC(=O)O)c(=O)oc2cc3c(cc12)CCC(C)(C)O3 | 3.39 µM |
| COc1ccc(-c2ccc(OC)c([C@H]3[C@H]4C=CC[C@@H](C)[C@@H]4C(=O)N3Cc3ccccc3)c2)cc1C | > 80 µM (inactive) |
| CCN(CC)CCOC(=O)c1ccc(NC(=O)COc2cc(=O)n(CC)c3ccccc23)cc1 | 43.8 µM (inactive) |
| CN(CC1CCCO1)S(=O)(=O)c1ccc(C(=O)Nc2nc3cc4c(cc3s2)OCO4)cc1 (stereo not given) | 0.36 µM |
| COc1cc(OC)c(/C=N/NC(N)=S)cc1Br | > 80 µM (inactive) |
| CC(=C\c1ccccc1)/C=C1/SC(=O)N(CCCC(=O)Nc2ccc(C(=O)O)cc2)C1=O | > 80 µM (inactive) |
| Cn1c(=O)n(C)c2cc(NC(=O)CSc3nnc(-c4ccccc4O)n3-c3ccccc3)ccc21 | 18.2 µM |
| Cc1ccc(-c2nn3c(C)nnc3c3ccccc23)cc1S(=O)(=O)NCCN1CCOCC1 | 32 µM (inactive) |
| CCN(CC(=O)Nc1c(F)cccc1F)C(=O)c1cc(S(=O)(=O)N(CC)CC)ccc1N1CCCCC1 | 26.8 µM (inactive) |
| C/C(=N\Nc1nc(Nc2ccccc2)nc(N2CCOCC2)n1)c1cccs1 | > 80 µM (inactive) |
| Cc1c(CCC(=O)N2CCC[C@H]2C(=O)O)c(=O)oc2cc3oc4c(c3cc12)CCCC4 | 8.43 µM |
| CCOc1ccc(-c2nnc(SCC(=O)NC3CC3)o2)cc1 | > 80 µM (inactive) |

| SMILES | IC50 |
| --- | --- |
| CCc1ccc2nc(Nc3nc(COC)cc(=O)[nH]3)nc(C)c2c1 | 46.4 µM (inactive) |
| Cc1ccccc1Nc1nc(Cl)c(C=O)s1 | > 80 µM (inactive) |
| CC1=CC(C)(C)Nc2ccc(OC(=O)C(Cc3ccccc3)N3C(=O)c4ccccc4C3=O)cc21 (stereo not given) | > 80 µM (inactive) |
| O=C(O)CCSc1nc2ccccc2s1 | 2.07 µM |
| CC(C)Oc1ccc(C(=O)Nc2ccc(N(C)C)cc2)cc1 | > 80 µM (inactive) |
| CCCC(=O)Nc1ccc(Sc2ccc([N+](=O)[O-])cc2)cc1 | 8.35 µM |
| Cn1c(=O)cc(SCC(=O)N2CCCC2)c2cc(Cl)ccc21 | > 80 µM (inactive) |
| COc1ccc(/C=C2\SC(=S)N(CCC(=O)Nc3cccc(O)c3)C2=O)cc1 | > 80 µM (inactive) |
| Cc1nc2cc(-c3ccccc3)nn2c(C)c1CCC(=O)NCc1ccco1 | > 80 µM (inactive) |
| Cc1ccccc1-n1c(SCc2c(C)noc2C)nnc1-c1c[nH]c2ccccc12 | 33.8 µM (inactive) |
| CC1CCC/C=C/C2CC(O)CC2C(O)/C=C/C(=O)O1 (stereo not given) | 0.53 µM |
| Cc1cc(C)nc(Sc2ccc([N+](=O)[O-])cc2[N+](=O)[O-])n1 | > 80 µM (inactive) |
| N=c1ccn(Cc2c(Cl)cccc2Cl)cc1 | 14.1 µM |
| COc1ccc(OC)c(NC(=O)c2[nH]c(C)c(C(C)=O)c2C)c1 | > 80 µM (inactive) |
| Cc1ccc(Sc2cc(NCCCO)c([N+](=O)[O-])c3nonc23)cc1 | > 80 µM (inactive) |
| C[C@H]1CCC/C=C/[C@@H]2C[C@H](O)C[C@H]2[C@H](O)/C=C/C(=O)O1 | 0.42 µM and 0.52 µM |
| COc1ccc(-c2nn(C)c(=O)c3ccccc23)cc1NS(C)(=O)=O | 43.9 µM (inactive) |
| CCOc1ccc(/C=C2\SC(=S)N(CCCC(=O)NCCCN3CCOCC3)C2=O)cc1 | > 80 µM (inactive) |
| COc1ccc(-n2ncc3c(N4CCC(C(N)=O)CC4)ncnc32)cc1 | > 80 µM (inactive) |
| O=C(CN1C(=O)c2ccccc2S1(=O)=O)c1ccc(Cl)cc1Cl | 17.9 µM |
